Measurements reported in patent publication US10112937B2, “P2X7 modulators and methods of use” (Janssen Pharmaceutica NV, priority 2013, dated 2018).

Molecular target: human P2X7 (Homo sapiens (Human), UniProt Q99572)
Test: P2X7 antagonism in human PBMCs (IL-1β release after LPS + Bz-ATP, ELISA)
Format: cell-based
Settings: human PBMCs, test compound 10 μM
Protocol: P2X7 Antagonism in Human Peripheral Blood Mononuclear Cells (PBMCs) and Human Whole Blood.
Human blood was collected using a blood donor program. PBMCs were isolated from blood using a Ficoll density gradient technique. Briefly, blood was laid on Ficoll solution and centrifuged at RT for 20 minutes at 2000 rpm. The buffy layer (between red blood cells and plasma) was carefully collected by aspiration, washed with PBS and centrifuged again at 1500 rpm for 15 minutes. The resulting cell pellet was washed and plated on 96 well-plates for experiments. For the Human Whole Blood experiments, 150 μl of human blood was platted on 96 well-plates. Lipopolysaccharide (LPS) (30 ng/ml) was added to each well and incubated for 1 hour. Test compounds were then added and incubated for 30 minutes. The P2X7 agonist, 2′(3′)-O-(4-benzoylbenzoyl) adenosine 5′ triphosphate (Bz-ATP) was then added at a final concentration of 0.5 mM (PBMC) or 1 mM (blood). Cells were incubated for an additional 1.5 hours. At that point, supernatant was collected and stored for IL-1β assay using manufacturer's protocol for enzyme-linked immunosorbent assay (ELISA). Data was expressed as percent control, where control is defined as the difference in IL-1β release in LPS+Bz-ATP samples and LPS only samples. Data was plotted as response (% control) versus concentration to generate IC50 values. […] Data are analyzed and graphed on Graphpad Prism 5. For analysis, each concentration point is averaged from triplicate values and the averaged values are plotted on Graphpad Prism.

human P2X7, sequence (Q99572 whole entry): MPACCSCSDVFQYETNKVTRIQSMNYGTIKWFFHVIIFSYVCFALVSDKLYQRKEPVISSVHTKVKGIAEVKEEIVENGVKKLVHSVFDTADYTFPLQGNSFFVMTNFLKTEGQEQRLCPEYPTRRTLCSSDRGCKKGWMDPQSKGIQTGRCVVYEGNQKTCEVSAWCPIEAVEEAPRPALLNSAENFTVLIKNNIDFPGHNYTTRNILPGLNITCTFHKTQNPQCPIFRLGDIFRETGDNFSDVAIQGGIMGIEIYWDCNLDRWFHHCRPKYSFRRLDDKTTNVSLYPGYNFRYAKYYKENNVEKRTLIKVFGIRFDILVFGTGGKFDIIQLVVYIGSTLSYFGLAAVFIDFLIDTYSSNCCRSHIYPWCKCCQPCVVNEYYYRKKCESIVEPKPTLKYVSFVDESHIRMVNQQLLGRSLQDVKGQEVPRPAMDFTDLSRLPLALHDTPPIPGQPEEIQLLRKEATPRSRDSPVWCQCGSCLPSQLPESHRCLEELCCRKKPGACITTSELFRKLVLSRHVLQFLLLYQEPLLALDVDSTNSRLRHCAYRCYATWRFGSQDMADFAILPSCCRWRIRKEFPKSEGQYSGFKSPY

| PBMC 10 μM (% control) | Structure (SMILES) |
| --- | --- |
| 9.2 | Cn1ccc(-n2nnc3c2CCN(C(=O)c2cccc(C(F)(F)F)c2Cl)C3)n1 [Example 127, (2-Chloro-3-(trifluoromethyl)phenyl)(1-(1-methyl-1H-pyrazol-3-yl)-6,7-dihydro-1H-[1,2,3]triazolo[4,5-c]pyridin-5(4H)-yl)methanone] |
| 8.4 | O=C(c1ccc(Cl)cc1F)N1CCc2c(nnn2-c2ccccn2)C1 [Example 129, (4-Chloro-2-fluorophenyl)(1-(pyridin-2-yl)-6,7-dihydro-1H-[1,2,3]triazolo[4,5-c]pyridin-5(4H)-yl)methanone] |
| 3.7 | O=C(c1ccc(F)c(Cl)c1Cl)N1CCc2c(nnn2-c2ccccn2)C1 [Example 130, (2,3-Dichloro-4-fluorophenyl)(1-(pyridin-2-yl)-6,7-dihydro-1H-[1,2,3]triazolo[4,5-c]pyridin-5(4H)-yl)methanone] |
| 3.8 | Cc1c(C(=O)N2CCc3c(nnn3-c3ccccn3)C2)ccc(F)c1F [Example 132, (3,4-Difluoro-2-methylphenyl)(1-(pyridin-2-yl)-6,7-dihydro-1H-[1,2,3]triazolo-[4,5-c]pyridin-5(4H)-yl)methanone] |
| 1.7 | O=C(c1cccc(C(F)(F)F)c1Cl)N1CCc2c(nnn2-c2cccc(F)n2)C1 [Example 135, (2-Chloro-3-(trifluoromethyl)phenyl)(1-(6-fluoropyridin-2-yl)-6,7-dihydro-1H-[1,2,3]triazolo[4,5-c]pyridin-5(4H)-yl)methanone] |
| 5.3 | COc1ccnc(-n2nnc3c2CCN(C(=O)c2cccc(C(F)(F)F)c2Cl)C3)c1 [Example 136, (2-Chloro-3-(trifluoromethyl)phenyl)(1-(4-methoxypyridin-2-yl)-6,7-dihydro-1H-[1,2,3]triazolo[4,5-c]pyridin-5(4H)-yl)methanone] |
| 1.1 | C[C@@H]1c2nnn(-c3ncc(F)cn3)c2CCN1C(=O)c1cccc(C(F)(F)F)c1Cl [Example 158, (R)-(2-chloro-3-(trifluoromethyl)phenyl)(1-(5-fluoropyrimidin-2-yl)-4-methyl-6,7-dihydro-1H-[1,2,3]triazolo[4,5-c]pyridin-5(4H)-yl)methanone] |
| 8.8 | CC1Cc2c(nnn2-c2cc(F)ccn2)CN1C(=O)c1cccc(Cl)c1Cl (stereo not shown) [Example 173, 5-[(2,3-Dichlorophenyl)carbonyl]-1-(4-fluoropyridin-2-yl)-6-methyl-4,5,6,7-tetrahydro-1H-[1,2,3]triazolo[4,5-c]pyridine] |
| 7.3 | CC1Cc2c(nnn2-c2cc(F)ccn2)CN1C(=O)c1cccc(C(F)(F)F)c1Cl (stereo not shown) [Example 176, (2-Chloro-3-(trifluoromethyl)phenyl)(1-(4-fluoropyridin-2-yl)-6-methyl-6,7-dihydro-1H-[1,2,3]triazolo[4,5-c]pyridin-5(4H)-yl)methanone] |
| 8.6 | CC1c2nnn(-c3cncnc3)c2CCN1C(=O)c1cccc(C(F)(F)F)c1Cl (stereo not shown) [Example 177, (2-Chloro-3-(trifluoromethyl)phenyl)(4-methyl-1-(pyrimidin-5-yl)-6,7-dihydro-1H-[1,2,3]triazolo[4,5-c]pyridin-5(4H)-yl)methanone] |
| 3.2 | CC1Cc2c(nnn2-c2ncc(F)cn2)CN1C(=O)c1cccc(C(F)(F)F)c1Cl (stereo not shown) [Example 200, 5-{[2-Chloro-3-(trifluoromethyl)phenyl]carbonyl}-1-(5-fluoropyrimidin-2-yl)-6-methyl-4,5,6,7-tetrahydro-1H-[1,2,3]triazolo[4,5-c]pyridine] |
| −1.0 | CC1Cc2c(nnn2-c2cnccn2)CN1C(=O)c1cccc(C(F)(F)F)c1Cl (stereo not shown) [Example 209, 5-{[2-Chloro-3-(trifluoromethyl)phenyl]carbonyl}-6-methyl-1-pyrazin-2-yl-4,5,6,7-tetrahydro-1H-[1,2,3]triazolo[4,5-c]pyridine] |
| 0.8 | CC1Cc2c(nnn2-c2cc[nH]n2)CN1C(=O)c1cccc(C(F)(F)F)c1Cl (stereo not shown) [Example 210, (2-chloro-3-(trifluoromethyl)phenyl)(6-methyl-1-(1H-pyrazol-3-yl)-6,7-dihydro-1H-[1,2,3]triazolo[4,5-c]pyridin-5(4H)-yl)methanone] |

Further lines, the molecule ahead of its results:

| Structure (SMILES) | PBMC 10 μM (% control) |
| --- | --- |
| CC1Cc2c(nnn2-c2ncccc2F)CN1C(=O)c1cccc(Cl)c1Cl (stereo not shown) [Example 161, (2,3-Dichlorophenyl)(1-(3-fluoropyridin-2-yl)-6-methyl-6,7-dihydro-1H-[1,2,3]triazolo[4,5-c]pyridin-5(4H)-yl)methanone] | −0.9 |
| CC1c2nnn(-c3ncc(F)cn3)c2CCN1C(=O)c1cccc(Cl)c1Cl (stereo not shown) [Example 174, (2,3-Dichlorophenyl)(1-(5-fluoropyrimidin-2-yl)-4-methyl-6,7-dihydro-1H-[1,2,3]triazolo[4,5-c]pyridin-5(4H)-yl)methanone] | 4.2 |
| CC1c2nnn(-c3ncc(F)cn3)c2CCN1C(=O)c1cccc(C(F)(F)F)c1F (stereo not shown) [Example 175, (2-fluoro-3-(trifluoromethyl)phenyl)(1-(5-fluoropyrimidin-2-yl)-4-methyl-6,7-dihydro-1H-[1,2,3]triazolo[4,5-c]pyridin-5(4H)-yl)methanone] | 4.5 |
| Cc1cc(C)nc(-n2nnc3c2CCN(C(=O)c2cccc(Cl)c2Cl)C3C)n1 (stereo not shown) [Example 179, (2,3-dichlorophenyl)(1-(4,6-dimethylpyrimidin-2-yl)-4-methyl-6,7-dihydro-1H-[1,2,3]triazolo[4,5-c]pyridin-5(4H)-yl)methanone] | −4.3 |
| Cc1cncc(-n2nnc3c2CCN(C(=O)c2cccc(Cl)c2Cl)C3C)n1 (stereo not shown) [Example 180, (2,3-dichlorophenyl)(4-methyl-1-(6-methylpyrazin-2-yl)-6,7-dihydro-1H-[1,2,3]triazolo[4,5-c]pyridin-5(4H)-yl)methanone] | −3.7 |
| CCc1nc2c(n1-c1ccccc1)CCN(C(=O)c1cccc(C(F)(F)F)c1Cl)C2C (stereo not shown) [Example 184, (2-Chloro-3-(trifluoromethyl)phenyl)(2-ethyl-4-methyl-1-phenyl-6,7-dihydro-1H-imidazo[4,5-c]pyridin-5(4H)-yl)methanone] | −0.7 |
| CC1Cc2c(nnn2-c2ccn[nH]2)CN1C(=O)c1cccc(C(F)(F)F)c1F (stereo not shown) [Example 189, (2-fluoro-3-(trifluoromethyl)phenyl)(6-methyl-1-(1H-pyrazol-3-yl)-6,7-dihydro-1H-[1,2,3]triazolo[4,5-c]pyridin-5(4H)-yl)methanone] | 0.5 |
| CC1Cc2c(nnn2-c2ncc(F)cn2)CN1C(=O)c1cccc(Cl)c1Cl (stereo not shown) [Example 203, 5-[(2,3-Dichlorophenyl)carbonyl]-1-(5-fluoropyrimidin-2-yl)-6-methyl-4,5,6,7-tetrahydro-1H-[1,2,3]triazolo[4,5-c]pyridine] | 0.6 |
| Cc1c(C(=O)N2Cc3nnn(-c4ncc(F)cn4)c3CC2C)cccc1C(F)(F)F (stereo not shown) [Example 206, 1-(5-Fluoropyrimidin-2-yl)-6-methyl-5-{[2-methyl-3-(trifluoromethyl)phenyl]carbonyl}-4,5,6,7-tetrahydro-1H-[1,2,3]triazolo[4,5-c]pyridine] | −1.0 |
| CC1Cc2c(nnn2-c2ncc(F)cn2)CN1C(=O)c1ccc(F)c(Cl)c1Cl (stereo not shown) [Example 213, 5-[(2,3-Dichloro-4-fluorophenyl)carbonyl]-1-(5-fluoropyrimidin-2-yl)-6-methyl-4,5,6,7-tetrahydro-1H-[1,2,3]triazolo[4,5-c]pyridine] | 0.3 |
| CC1Cc2c(nnn2-c2ncc(F)cn2)CN1C(=O)c1ccc(Cl)c(F)c1Cl (stereo not shown) [Example 216, 5-[(2,4-Dichloro-3-fluorophenyl)carbonyl]-1-(5-fluoropyrimidin-2-yl)-6-methyl-4,5,6,7-tetrahydro-1H-[1,2,3]triazolo[4,5-c]pyridine] | 0.6 |
| Cc1ccnc(-n2nnc3c2CCN(C(=O)c2cccc(Cl)c2Cl)C3C)n1 (stereo not shown) [Example 225, (2,3-dichlorophenyl)(4-methyl-1-(4-methylpyrimidin-2-yl)-6,7-dihydro-1H-[1,2,3]triazolo[4,5-c]pyridin-5(4H)-yl)methanone] | −1.0 |
| C[C@H]1Cc2c(nnn2-c2ncc(F)cn2)CN1C(=O)c1ccnc(C(F)(F)F)c1F [Example 228, (S)-(3-fluoro-2-(trifluoromethyl)pyridin-4-yl)(1-(5-fluoropyrimidin-2-yl)-6-methyl-6,7-dihydro-1H-[1,2,3]triazolo[4,5-c]pyridin-5(4H)-yl)methanone] | −1.1 |
| Cc1nc(-n2nnc3c2CCN(C(=O)c2cccc(C(F)(F)F)c2Cl)C3C)ncc1F (stereo not shown) [Example 230, (2-chloro-3-(trifluoromethyl)phenyl)(1-(5-fluoro-4-methylpyrimidin-2-yl)-4-methyl-6,7-dihydro-1H-[1,2,3]triazolo[4,5-c]pyridin-5(4H)-yl)methanone] | 2.9 |
| Cc1cc(C)nc(-n2nnc3c2CCN(C(=O)c2cccc(Cl)c2Cl)C3C)c1 (stereo not shown) [Example 231, (2,3-dichlorophenyl)(1-(4,6-dimethylpyridin-2-yl)-4-methyl-6,7-dihydro-1H-[1,2,3]triazolo[4,5-c]pyridin-5(4H)-yl)methanone] | −4.8 |
| Cc1cccc(-n2nnc3c2CCN(C(=O)c2cccc(Cl)c2Cl)C3C)n1 (stereo not shown) [Example 233, (2,3-dichlorophenyl)(4-methyl-1-(6-methylpyridin-2-yl)-6,7-dihydro-1H-[1,2,3]triazolo[4,5-c]pyridin-5(4H)-yl)methanone] | −0.1 |
| CC1c2nnn(-c3cncnc3)c2C=CN1C(=O)c1cccc(C(F)(F)F)c1Cl (stereo not shown) [Example 236, (2-Chloro-3-(trifluoromethyl)phenyl)(4-methyl-1-(pyrimidin-5-yl)-1H-[1,2,3]triazolo[4,5-c]pyridin-5(4H)-yl)methanone] | 9.3 |
| Cc1ccnc(-n2nnc3c2CCN(C(=O)c2cccc(Cl)c2Cl)C3C)c1 (stereo not shown) [Example 237, (2,3-dichlorophenyl)(4-methyl-1-(4-methylpyridin-2-yl)-6,7-dihydro-1H-[1,2,3]triazolo[4,5-c]pyridin-5(4H)-yl)methanone] | −5.1 |
